Results from PMC11012124, “Synthesis of Novel Triazine-Based Chalcones and 8,9-dihydro-7H-pyrimido[4,5-b][1,4]diazepines as Potential Leads in the Search of Anticancer, Antibacterial and Antifungal Agents” (International Journal of Molecular Sciences, 2024).
Values after ≈ are worked out from the molar mass of the structure shown.

Key:
[1] = test system: M. tuberculosis ATCC 27294; experiment: Antitubercular broth microdilution MIC; assay type: cell-based; details: Mycobacterium tuberculosis; M. tuberculosis ATCC 27294 (H37Rv); read-out: Minimum inhibitory concentration (MIC)
CCRF-CEM = experiment: cells; details: Homo sapiens, 48 h; for CC50: read-out: LC50
HL-60(TB) = experiment: cells; details: Homo sapiens, HL-60, 48 h; for CC50: read-out: LC50
K-562 = experiment: cells; details: Homo sapiens, K562, 48 h; for GI50: K-562, 48 h; for CC50: read-out: LC50
HOP-92 = experiment: cells; details: Homo sapiens, HOP-92, 48 h; for CC50: read-out: LC50
NCI-H226 = experiment: cells; details: Homo sapiens, NCI-H226, 48 h; for CC50: read-out: LC50
NCI-H23 = experiment: cells; details: Homo sapiens, NCI-H23, 48 h; for CC50: read-out: LC50
NCI-H460 = experiment: cells; details: Homo sapiens, NCI-H460, 48 h; for CC50: read-out: LC50
SF-268 = experiment: cells; details: Homo sapiens, SF-268, 48 h; for CC50: read-out: LC50
SF-295 = experiment: cells; details: Homo sapiens, SF-295, 48 h; for CC50: read-out: LC50
LOX IMVI = experiment: cells; details: Homo sapiens, 48 h; for CC50: read-out: LC50, LOX IMVI, 48 h
MDA-MB-435 = experiment: cells; details: Homo sapiens, MDA-MB-435, 48 h; for CC50: read-out: LC50
SK-MEL-2 = experiment: cells; details: Homo sapiens, SK-MEL-2, 48 h; for CC50: read-out: LC50
SK-MEL-5 = experiment: cells; details: Homo sapiens, SK-MEL-5, 48 h; for CC50: read-out: LC50
UACC-257 = experiment: cells; details: Homo sapiens, UACC-257, 48 h; for CC50: read-out: LC50
IGROV1 = experiment: cells; details: Homo sapiens, IGROV-1, 48 h; for CC50: read-out: LC50
OVCAR-3 = experiment: cells; details: Homo sapiens, OVCAR-3, 48 h; for CC50: read-out: LC50
OVCAR-4 = experiment: cells; details: Homo sapiens, OVCAR-4, 48 h; for CC50: read-out: LC50
OVCAR-5 = experiment: cells; details: Homo sapiens, OVCAR-5, 48 h; for CC50: read-out: LC50
NCI/ADR-RES = experiment: cells; details: Homo sapiens, 48 h; for CC50: read-out: LC50
786-0 = experiment: cells; details: Homo sapiens, 786-0, 48 h; for CC50: read-out: LC50
A498 = experiment: cells; details: Homo sapiens, A498, 48 h; for CC50: read-out: LC50
SN12C = experiment: cells; details: Homo sapiens, 48 h; for CC50: read-out: LC50
TK-10 = experiment: cells; details: Homo sapiens, TK-10, 48 h; for CC50: read-out: LC50
MCF7 = experiment: cells; details: Homo sapiens, MCF7, 48 h; for CC50: read-out: LC50

CN(C)c1nc(NCCNS(=O)(=O)c2ccc(C(=O)/C=C/c3ccc(F)cc3)cc2)nc(Nc2ccc(F)cc2)n1 [24f]
MIC [1]: 25 µg/mL (≈ 43.1 µM) | GI50 (CCRF-CEM): 3.42 µM | CC50 (CCRF-CEM): > 100 µM | GI50 (HL-60(TB)): 2.04 µM | CC50 (HL-60(TB)): 6.34 µM | GI50 (K-562): 2.42 µM | CC50 (K-562): 6.79 µM | GI50 (HOP-92): 2.49 µM | CC50 (HOP-92): 6.51 µM | GI50 (NCI-H226): 3.41 µM | CC50 (NCI-H226): 16.4 µM | GI50 (NCI-H23): 4.17 µM | CC50 (NCI-H23): 15.6 µM | GI50 (NCI-H460): 2.45 µM | CC50 (NCI-H460): 6.93 µM | GI50 (SF-268): 3.89 µM | CC50 (SF-268): 16.4 µM | GI50 (SF-295): 3.4 µM | CC50 (SF-295): 13 µM | GI50 (LOX IMVI): 1.66 µM | CC50 (LOX IMVI): 3.07 µM | GI50 (MDA-MB-435): 2.32 µM | CC50 (MDA-MB-435): 5.69 µM | GI50 (SK-MEL-2): 2.77 µM | CC50 (SK-MEL-2): 8.31 µM | GI50 (SK-MEL-5): 2.91 µM | CC50 (SK-MEL-5): 11.1 µM | GI50 (UACC-257): 3.61 µM | CC50 (UACC-257): 15.2 µM | GI50 (IGROV1): 4.27 µM | CC50 (IGROV1): 15 µM | GI50 (OVCAR-3): 1.74 µM | CC50 (OVCAR-3): 3.24 µM | GI50 (OVCAR-4): 3.68 µM | CC50 (OVCAR-4): 15.6 µM | GI50 (OVCAR-5): 3.39 µM | CC50 (OVCAR-5): 15 µM | GI50 (NCI/ADR-RES): 3.25 µM | CC50 (NCI/ADR-RES): 11.6 µM | GI50 (786-0): 2.56 µM | CC50 (786-0): 6.3 µM | GI50 (A498): 6.21 µM | CC50 (A498): 19.3 µM | GI50 (SN12C): 1.7 µM | CC50 (SN12C): 3.36 µM | GI50 (TK-10): 4.62 µM | CC50 (TK-10): 16.6 µM | GI50 (MCF7): 1.8 µM | CC50 (MCF7): 3.46 µM

CN(C)c1nc(NCCNS(=O)(=O)c2ccc(C3=Nc4c(N)nc(N)nc4NC(c4ccccc4)C3)cc2)nc(Nc2ccc(F)cc2)n1 (stereo not drawn) [31a]
MIC [1]: 1.2 µg/mL (≈ 1.75 µM) | GI50 (CCRF-CEM): 4.02 µM | CC50 (CCRF-CEM): > 100 µM | GI50 (HL-60(TB)): 4.24 µM | CC50 (HL-60(TB)): > 100 µM | GI50 (K-562): 4.33 µM | CC50 (K-562): > 100 µM | GI50 (HOP-92): 2.18 µM | CC50 (HOP-92): 9.96 µM | GI50 (NCI-H226): > 100 µM | CC50 (NCI-H226): > 100 µM | GI50 (NCI-H23): > 100 µM | CC50 (NCI-H23): > 100 µM | GI50 (NCI-H460): 6.49 µM | CC50 (NCI-H460): > 100 µM | GI50 (SF-268): 9.85 µM | CC50 (SF-268): > 100 µM | GI50 (SF-295): 9.49 µM | CC50 (SF-295): > 100 µM | GI50 (LOX IMVI): 9.96 µM | CC50 (LOX IMVI): 25.7 µM | GI50 (MDA-MB-435): 15 µM | CC50 (MDA-MB-435): > 100 µM | GI50 (SK-MEL-2): 28.5 µM | CC50 (SK-MEL-2): > 100 µM | GI50 (SK-MEL-5): 5.81 µM | CC50 (SK-MEL-5): 20.5 µM | GI50 (UACC-257): 87.2 µM | CC50 (UACC-257): > 100 µM | GI50 (IGROV1): 5.76 µM | CC50 (IGROV1): > 100 µM | GI50 (OVCAR-3): 69.3 µM | CC50 (OVCAR-3): > 100 µM | GI50 (OVCAR-4): 74.6 µM | CC50 (OVCAR-4): > 100 µM | GI50 (OVCAR-5): > 100 µM | CC50 (OVCAR-5): > 100 µM | GI50 (NCI/ADR-RES): > 100 µM | CC50 (NCI/ADR-RES): > 100 µM | GI50 (786-0): 7.88 µM | CC50 (786-0): > 100 µM | CC50 (A498): > 100 µM | GI50 (SN12C): 7.83 µM | CC50 (SN12C): > 100 µM | GI50 (TK-10): > 100 µM | CC50 (TK-10): > 100 µM | GI50 (MCF7): 3.85 µM | CC50 (MCF7): 85.5 µM

Cc1ccc(C2CC(c3ccc(S(=O)(=O)NCCNc4nc(Nc5ccc(F)cc5)nc(N(C)C)n4)cc3)=Nc3c(N)nc(N)nc3N2)cc1 (stereo not drawn) [31b]
MIC [1]: 0.6 µg/mL (≈ 0.86 µM) | GI50 (CCRF-CEM): 2.81 µM | CC50 (CCRF-CEM): > 100 µM | GI50 (HL-60(TB)): 2.94 µM | CC50 (HL-60(TB)): 20.2 µM | GI50 (K-562): 2.75 µM | GI50 (HOP-92): 2.54 µM | CC50 (HOP-92): 21 µM | GI50 (NCI-H226): > 100 µM | CC50 (NCI-H226): > 100 µM | GI50 (NCI-H23): 78.8 µM | CC50 (NCI-H23): > 100 µM | GI50 (NCI-H460): 4.76 µM | CC50 (NCI-H460): > 100 µM | GI50 (SF-268): 7.53 µM | CC50 (SF-268): > 100 µM | GI50 (SF-295): 6.6 µM | CC50 (SF-295): > 100 µM | GI50 (LOX IMVI): 2.09 µM | CC50 (LOX IMVI): 5.11 µM | GI50 (MDA-MB-435): 8.79 µM | CC50 (MDA-MB-435): > 100 µM | GI50 (SK-MEL-2): 11.2 µM | CC50 (SK-MEL-2): 77.7 µM | GI50 (SK-MEL-5): 4.98 µM | CC50 (SK-MEL-5): 20.6 µM | GI50 (UACC-257): 26 µM | CC50 (UACC-257): > 100 µM | GI50 (IGROV1): 64.4 µM | CC50 (IGROV1): > 100 µM | GI50 (OVCAR-3): 9.93 µM | CC50 (OVCAR-3): > 100 µM | CC50 (OVCAR-4): > 100 µM | GI50 (OVCAR-5): > 100 µM | CC50 (OVCAR-5): > 100 µM | GI50 (NCI/ADR-RES): > 100 µM | CC50 (NCI/ADR-RES): > 100 µM | GI50 (786-0): 7.06 µM | CC50 (786-0): > 100 µM | GI50 (A498): > 100 µM | CC50 (A498): > 100 µM | GI50 (SN12C): > 100 µM | CC50 (SN12C): > 100 µM | GI50 (TK-10): > 100 µM | CC50 (TK-10): > 100 µM | GI50 (MCF7): 3.08 µM | CC50 (MCF7): > 100 µM
